Converted amounts (≈) assume the structure as drawn.

The target in series [1] is T1, JAK2 (Mus musculus, UniProt Q62120).
T1 construct: endogenous in cells; host or cells: BAF3
Nature of the series: JAKs cell activity test: JAK2_pSTAT5 in IL-3-induced BAF3 cells. The series is classed as cell-based. Particulars: pSTAT5, IL-3-induced BAF3 cells. On the procedure:
(§1) THP1 cells were collected by centrifugation, resuspended with 1×HBSS, counted and diluted to a certain cell density. They were inoculated in a 384-well plate and cultured in a saturated humidity incubator with 37 °C and 5% CO2. The compound (DMSO final volume of 0.3%) was added to THP1 cells (10 doses in duplicates) and cultured in a saturated humidity incubator with 37 °C and 5% CO2. hIL-4 was added to stimulate cells and cultured in a saturated humidity incubator with 37 °C and 5% CO2. The lysis solution was added and incubated at room temperature. According to the instructions of AlphaLISA SureFire Ultra p-STAT6 detection kit, the lysis solution was transferred to pSTAT6 detection system, and the ALPHA signal was read by PE Envision microplate reader. The inhibition rate Inh%=((DMSO-sample)/(DMSO-background))×100 was calculated. IC50 was obtained by fitting with GraphPad Prism non-linear regression equation, and y=Bottom+(Top-Bottom)/(1+10^((LogIC50-x)×hillslope)), where x was the concentration of the compound and y was the inhibition rate.
(§2) JAK2_pSTAT5 was tesed in IL-3-induced BAF3 cells according to the above steps, and JAK3_pSTAT5 was tested in IL-2-induced CTLL-2 cells (without serum stimulation) according to the above steps.

Series [2] deals with TYK2 (Homo sapiens, UniProt P29597). In words: experiment of inhibiting kinase activity, TYK2. The series is classed as biochemical. Particulars: read-out: inhibition rate TYK2; for inhibition at 0.01 µM: at 10 nM; for inhibition at 0.1 µM: at 100 nM. On the procedure:
(§3) The inhibition rates of tested compounds on JAK1, JAK2, JAK3, TYK2, CDK7, CDK9, EGFR (T790M) and LRRK2 kinases were measured. The test concentrations of the compounds were 10 nM and 100 nM, and the detection was performed by replicate wells. Alternatively, compounds were 3-fold serial diluted from 10 µM for 10 concentrations in replicate wells.

The target of series [3] is T2, JAK3 (Homo sapiens, UniProt P52333).
T2 sequence (P52333 1-1124): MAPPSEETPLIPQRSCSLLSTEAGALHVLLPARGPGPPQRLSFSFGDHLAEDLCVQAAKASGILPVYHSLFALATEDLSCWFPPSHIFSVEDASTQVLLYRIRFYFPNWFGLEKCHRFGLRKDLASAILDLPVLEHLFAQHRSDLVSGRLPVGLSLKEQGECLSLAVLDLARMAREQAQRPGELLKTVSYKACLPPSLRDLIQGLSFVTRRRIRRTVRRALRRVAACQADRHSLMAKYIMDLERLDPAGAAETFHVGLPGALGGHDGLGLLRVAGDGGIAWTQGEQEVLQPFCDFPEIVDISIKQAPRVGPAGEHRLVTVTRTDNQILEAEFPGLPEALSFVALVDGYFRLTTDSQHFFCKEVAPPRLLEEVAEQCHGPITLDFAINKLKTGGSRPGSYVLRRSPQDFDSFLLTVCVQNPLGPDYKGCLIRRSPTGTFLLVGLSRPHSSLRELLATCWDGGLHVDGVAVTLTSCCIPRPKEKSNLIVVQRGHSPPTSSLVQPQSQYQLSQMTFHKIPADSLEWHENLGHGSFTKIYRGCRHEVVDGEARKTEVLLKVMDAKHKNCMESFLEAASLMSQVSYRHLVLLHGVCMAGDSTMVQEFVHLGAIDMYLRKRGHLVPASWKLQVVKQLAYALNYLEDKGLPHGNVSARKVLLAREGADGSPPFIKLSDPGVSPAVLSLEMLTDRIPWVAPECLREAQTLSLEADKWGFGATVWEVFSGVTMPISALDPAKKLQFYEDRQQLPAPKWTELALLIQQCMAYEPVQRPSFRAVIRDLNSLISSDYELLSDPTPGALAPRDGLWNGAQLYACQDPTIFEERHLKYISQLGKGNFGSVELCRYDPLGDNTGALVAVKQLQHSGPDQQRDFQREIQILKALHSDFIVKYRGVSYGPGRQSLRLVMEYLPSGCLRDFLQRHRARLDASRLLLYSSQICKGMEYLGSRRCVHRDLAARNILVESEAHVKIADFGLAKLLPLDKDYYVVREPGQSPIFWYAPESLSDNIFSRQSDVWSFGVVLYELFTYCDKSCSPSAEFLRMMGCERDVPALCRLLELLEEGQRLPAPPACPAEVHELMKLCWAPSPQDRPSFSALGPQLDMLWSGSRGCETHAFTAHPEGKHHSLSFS
In words: experiment of inhibiting kinase activity (Caliper mobility shift assay), JAK3. The series is classed as biochemical. Particulars: for IC50: kinase activity assay, Table 3. A digest of the protocol:
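Compounds were tested at 10 nM and 100 nM, or as 10-point 3-fold dilutions from 10 µM, in replicate wells. Kinase was preincubated with compound for 10 min at room temperature before ATP/substrate addition. Substrate conversion was read by mobility shift, and IC50 was fitted by a variable-slope log(inhibitor) vs response model.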

Series [4] deals with EGFR (T790M) (Homo sapiens, UniProt P00533, T790M). In words: experiment of inhibiting kinase activity, EGFR (T790M). The series is classed as biochemical. Particulars: at 10 nM; read-out: inhibition rate EGFR(T790M). On the procedure: as §3
Series [5] concerns the target Wild-type EGFR kinase protein (Homo sapiens, UniProt P00533). Nature of the series: experiment of inhibiting EGFR kinase activity (TR-FRET method). The series is classed as biochemical. On the procedure:
The inhibitory effect of the compounds on EGFR kinase activity was measured by TR-FRET method. The diluted solutions of the compounds were transfered to a 384-well plate (784075, Greiner), the plate was sealed and centrifuged at a speed of 1000 g for 1 minute. Wild-type EGFR kinase protein at 2-fold final concentration was prepared in 1×kinase buffer, 5 µL of wild-type EGFR at 2-fold final concentration was added to 384-well plate, the well plate was centrifuged at 1000 g for 30 seconds, and left at room temperature for 10 minutes. A mixture of 2-fold TK-substrate-biotin (2 µM) and ATP was prepared in 1×kinase buffer, and 5 µL of the mixture of 2×TK-substrate-biotin (2 µM) and ATP was added to start the reaction. The well plate was centrifuged at 1000 g for 30 seconds, sealed and left at room temperature for 40 minutes. […] The fluorescence signal values at 615 nm (Cryptate) and 665 nm (XL665) were detected by using Envision 2104 microplate reader. […] The IC50 was calculated with GraphPad 8.0 and the dose-reponse curve of the compound was plotted as follows: y=Bottom+(Top-Bottom)/(1+10^((logic50-x)×hillslope)), where x was logarithm of inhibitor concentration; and y was % inhibition rate.
(Time-resolved FRET reads energy transfer from a long-lived donor to a nearby acceptor.)

In series [6] the target is T3, JAK3 (Mus musculus, UniProt Q62137).
T3 construct: endogenous in cells; host or cells: CTLL-2
T3 sequence (Q62137 1-1100): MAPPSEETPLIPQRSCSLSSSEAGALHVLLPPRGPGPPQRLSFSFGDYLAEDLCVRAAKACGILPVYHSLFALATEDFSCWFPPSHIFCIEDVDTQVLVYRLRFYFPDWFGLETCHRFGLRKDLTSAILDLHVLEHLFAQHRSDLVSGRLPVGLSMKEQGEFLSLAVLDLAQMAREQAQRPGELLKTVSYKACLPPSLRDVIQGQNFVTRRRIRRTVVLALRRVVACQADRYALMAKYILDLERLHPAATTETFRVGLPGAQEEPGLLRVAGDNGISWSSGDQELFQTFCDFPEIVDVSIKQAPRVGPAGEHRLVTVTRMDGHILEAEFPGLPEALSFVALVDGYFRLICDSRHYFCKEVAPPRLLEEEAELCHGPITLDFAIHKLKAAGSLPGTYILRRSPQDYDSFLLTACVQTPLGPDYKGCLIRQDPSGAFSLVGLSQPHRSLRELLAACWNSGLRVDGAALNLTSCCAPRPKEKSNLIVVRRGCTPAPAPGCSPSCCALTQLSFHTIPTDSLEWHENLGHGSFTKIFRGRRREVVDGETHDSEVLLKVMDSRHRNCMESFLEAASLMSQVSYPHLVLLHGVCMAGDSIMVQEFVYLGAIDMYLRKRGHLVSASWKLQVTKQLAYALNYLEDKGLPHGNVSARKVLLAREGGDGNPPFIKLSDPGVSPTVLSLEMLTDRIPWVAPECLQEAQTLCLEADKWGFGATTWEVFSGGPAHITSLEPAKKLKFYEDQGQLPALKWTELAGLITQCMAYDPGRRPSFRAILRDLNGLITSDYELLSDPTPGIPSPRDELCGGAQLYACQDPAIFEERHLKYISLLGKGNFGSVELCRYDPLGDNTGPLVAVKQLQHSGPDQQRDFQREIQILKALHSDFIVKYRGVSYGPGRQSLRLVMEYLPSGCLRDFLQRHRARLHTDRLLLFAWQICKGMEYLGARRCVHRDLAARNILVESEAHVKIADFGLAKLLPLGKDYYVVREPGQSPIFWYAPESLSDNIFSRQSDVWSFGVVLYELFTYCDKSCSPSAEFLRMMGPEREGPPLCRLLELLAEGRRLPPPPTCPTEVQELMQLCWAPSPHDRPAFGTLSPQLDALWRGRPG
In words: JAKs cell activity test: JAK3_pSTAT5 in IL-2-induced CTLL-2 cells. Particulars: pSTAT5, IL-2-induced CTLL-2 cells. The series is classed as cell-based. On the procedure: as §1, §2

The nature of series [7]: measurement of the solubility of compounds in water and diluted hydrochloric acid. The series is classed as physicochemical. Particulars: thermodynamic from solid. A digest of the protocol: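 About 1.0 mg solid shaken in 0.3 mL ultrapure water (pH~6) overnight or in dilute HCl (pH~1.5) for 1 h at room temperature, then centrifuged. Supernatant diluted 10-fold in acetonitrile and quantified by LC-MS against an acetonitrile standard curve; solubility = measured concentration × 10.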

TYK2, sequence (P29597 whole entry): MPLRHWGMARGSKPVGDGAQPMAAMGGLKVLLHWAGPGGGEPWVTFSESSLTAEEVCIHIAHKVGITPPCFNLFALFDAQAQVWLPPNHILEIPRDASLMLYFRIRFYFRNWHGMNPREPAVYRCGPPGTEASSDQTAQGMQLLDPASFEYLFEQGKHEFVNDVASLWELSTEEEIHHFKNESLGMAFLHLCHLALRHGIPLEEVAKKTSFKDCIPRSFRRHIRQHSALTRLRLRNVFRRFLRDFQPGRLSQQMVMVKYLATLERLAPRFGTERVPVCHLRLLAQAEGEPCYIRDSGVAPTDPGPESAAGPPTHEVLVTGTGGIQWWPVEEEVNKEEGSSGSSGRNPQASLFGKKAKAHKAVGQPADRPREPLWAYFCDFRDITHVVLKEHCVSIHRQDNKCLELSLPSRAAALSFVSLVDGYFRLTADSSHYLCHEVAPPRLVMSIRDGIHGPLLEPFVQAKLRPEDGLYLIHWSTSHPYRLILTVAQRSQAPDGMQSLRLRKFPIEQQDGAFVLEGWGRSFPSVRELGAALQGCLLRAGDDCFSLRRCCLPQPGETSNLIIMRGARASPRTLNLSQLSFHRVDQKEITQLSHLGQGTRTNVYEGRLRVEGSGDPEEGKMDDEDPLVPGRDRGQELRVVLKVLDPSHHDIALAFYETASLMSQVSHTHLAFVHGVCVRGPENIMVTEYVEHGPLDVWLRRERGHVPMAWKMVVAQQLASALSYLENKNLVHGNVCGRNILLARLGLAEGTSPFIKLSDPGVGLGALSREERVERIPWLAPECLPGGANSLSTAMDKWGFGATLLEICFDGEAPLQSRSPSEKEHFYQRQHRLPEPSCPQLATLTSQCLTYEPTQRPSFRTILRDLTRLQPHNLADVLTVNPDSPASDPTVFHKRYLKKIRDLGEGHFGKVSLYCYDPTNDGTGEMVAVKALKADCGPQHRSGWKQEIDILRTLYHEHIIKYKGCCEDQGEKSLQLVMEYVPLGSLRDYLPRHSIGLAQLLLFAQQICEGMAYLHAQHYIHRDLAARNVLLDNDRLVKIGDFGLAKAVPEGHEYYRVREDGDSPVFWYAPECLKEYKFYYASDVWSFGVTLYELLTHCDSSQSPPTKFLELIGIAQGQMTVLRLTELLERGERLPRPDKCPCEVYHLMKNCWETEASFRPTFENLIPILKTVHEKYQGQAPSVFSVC
EGFR (T790M), sequence (P00533 25-1210 T790M): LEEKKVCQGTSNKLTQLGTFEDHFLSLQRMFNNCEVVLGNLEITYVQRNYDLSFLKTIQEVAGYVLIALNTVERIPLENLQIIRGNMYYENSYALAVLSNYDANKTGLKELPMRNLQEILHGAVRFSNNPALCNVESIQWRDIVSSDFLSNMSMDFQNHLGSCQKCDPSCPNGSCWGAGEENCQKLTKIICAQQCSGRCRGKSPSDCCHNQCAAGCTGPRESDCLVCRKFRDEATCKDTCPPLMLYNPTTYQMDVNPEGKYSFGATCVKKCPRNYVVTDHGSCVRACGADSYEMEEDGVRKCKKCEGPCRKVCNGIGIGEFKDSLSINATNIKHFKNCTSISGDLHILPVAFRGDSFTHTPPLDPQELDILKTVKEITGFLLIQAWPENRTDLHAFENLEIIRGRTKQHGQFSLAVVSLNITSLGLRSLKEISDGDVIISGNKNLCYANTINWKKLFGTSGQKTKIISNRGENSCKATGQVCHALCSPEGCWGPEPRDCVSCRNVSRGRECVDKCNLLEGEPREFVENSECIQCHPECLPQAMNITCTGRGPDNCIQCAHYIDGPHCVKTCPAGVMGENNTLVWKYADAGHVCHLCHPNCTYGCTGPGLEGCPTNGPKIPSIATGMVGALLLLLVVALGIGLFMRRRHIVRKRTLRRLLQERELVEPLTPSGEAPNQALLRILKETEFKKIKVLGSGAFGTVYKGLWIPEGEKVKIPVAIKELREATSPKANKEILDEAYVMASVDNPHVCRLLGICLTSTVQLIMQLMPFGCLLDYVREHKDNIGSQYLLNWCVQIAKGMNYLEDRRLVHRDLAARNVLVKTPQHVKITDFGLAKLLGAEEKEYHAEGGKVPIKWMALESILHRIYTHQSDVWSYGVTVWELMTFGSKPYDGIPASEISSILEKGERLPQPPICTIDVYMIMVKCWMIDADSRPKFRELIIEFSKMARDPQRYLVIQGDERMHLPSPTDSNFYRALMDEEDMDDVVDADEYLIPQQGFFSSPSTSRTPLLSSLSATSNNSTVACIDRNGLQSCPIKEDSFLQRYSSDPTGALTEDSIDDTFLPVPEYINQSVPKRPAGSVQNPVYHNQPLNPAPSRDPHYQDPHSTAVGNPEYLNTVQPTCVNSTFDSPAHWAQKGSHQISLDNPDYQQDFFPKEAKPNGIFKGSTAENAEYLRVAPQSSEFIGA
Wild-type EGFR kinase protein, sequence (P00533 25-1210): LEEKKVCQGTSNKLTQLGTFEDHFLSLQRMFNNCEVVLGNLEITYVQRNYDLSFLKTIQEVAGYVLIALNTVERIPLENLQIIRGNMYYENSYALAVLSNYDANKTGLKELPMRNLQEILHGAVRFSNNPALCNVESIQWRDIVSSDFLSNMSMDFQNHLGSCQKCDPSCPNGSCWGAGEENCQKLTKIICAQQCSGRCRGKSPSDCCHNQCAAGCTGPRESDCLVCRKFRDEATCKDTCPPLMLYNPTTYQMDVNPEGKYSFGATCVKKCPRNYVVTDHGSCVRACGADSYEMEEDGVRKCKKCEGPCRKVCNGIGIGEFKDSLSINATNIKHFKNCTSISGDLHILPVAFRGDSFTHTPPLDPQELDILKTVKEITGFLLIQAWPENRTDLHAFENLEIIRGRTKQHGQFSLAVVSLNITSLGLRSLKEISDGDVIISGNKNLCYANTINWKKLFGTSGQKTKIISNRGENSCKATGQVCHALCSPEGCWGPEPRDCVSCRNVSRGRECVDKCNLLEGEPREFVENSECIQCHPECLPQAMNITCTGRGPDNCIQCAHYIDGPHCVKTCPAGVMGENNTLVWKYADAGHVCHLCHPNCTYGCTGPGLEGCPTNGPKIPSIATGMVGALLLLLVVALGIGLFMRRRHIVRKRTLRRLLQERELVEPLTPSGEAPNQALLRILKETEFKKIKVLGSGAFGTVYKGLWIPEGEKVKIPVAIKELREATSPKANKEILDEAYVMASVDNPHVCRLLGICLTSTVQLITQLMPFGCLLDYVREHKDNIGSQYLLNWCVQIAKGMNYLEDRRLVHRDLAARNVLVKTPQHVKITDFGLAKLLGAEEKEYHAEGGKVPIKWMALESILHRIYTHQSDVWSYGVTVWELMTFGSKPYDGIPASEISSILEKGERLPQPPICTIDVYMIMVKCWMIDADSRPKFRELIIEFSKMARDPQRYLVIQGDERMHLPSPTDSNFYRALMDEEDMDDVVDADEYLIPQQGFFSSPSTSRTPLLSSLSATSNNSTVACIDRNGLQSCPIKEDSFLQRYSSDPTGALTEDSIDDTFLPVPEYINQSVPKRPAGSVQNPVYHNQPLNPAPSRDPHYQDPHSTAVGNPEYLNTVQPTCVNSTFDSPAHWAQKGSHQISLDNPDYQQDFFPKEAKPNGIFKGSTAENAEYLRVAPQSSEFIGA
T1 sequence (Q62120 whole entry): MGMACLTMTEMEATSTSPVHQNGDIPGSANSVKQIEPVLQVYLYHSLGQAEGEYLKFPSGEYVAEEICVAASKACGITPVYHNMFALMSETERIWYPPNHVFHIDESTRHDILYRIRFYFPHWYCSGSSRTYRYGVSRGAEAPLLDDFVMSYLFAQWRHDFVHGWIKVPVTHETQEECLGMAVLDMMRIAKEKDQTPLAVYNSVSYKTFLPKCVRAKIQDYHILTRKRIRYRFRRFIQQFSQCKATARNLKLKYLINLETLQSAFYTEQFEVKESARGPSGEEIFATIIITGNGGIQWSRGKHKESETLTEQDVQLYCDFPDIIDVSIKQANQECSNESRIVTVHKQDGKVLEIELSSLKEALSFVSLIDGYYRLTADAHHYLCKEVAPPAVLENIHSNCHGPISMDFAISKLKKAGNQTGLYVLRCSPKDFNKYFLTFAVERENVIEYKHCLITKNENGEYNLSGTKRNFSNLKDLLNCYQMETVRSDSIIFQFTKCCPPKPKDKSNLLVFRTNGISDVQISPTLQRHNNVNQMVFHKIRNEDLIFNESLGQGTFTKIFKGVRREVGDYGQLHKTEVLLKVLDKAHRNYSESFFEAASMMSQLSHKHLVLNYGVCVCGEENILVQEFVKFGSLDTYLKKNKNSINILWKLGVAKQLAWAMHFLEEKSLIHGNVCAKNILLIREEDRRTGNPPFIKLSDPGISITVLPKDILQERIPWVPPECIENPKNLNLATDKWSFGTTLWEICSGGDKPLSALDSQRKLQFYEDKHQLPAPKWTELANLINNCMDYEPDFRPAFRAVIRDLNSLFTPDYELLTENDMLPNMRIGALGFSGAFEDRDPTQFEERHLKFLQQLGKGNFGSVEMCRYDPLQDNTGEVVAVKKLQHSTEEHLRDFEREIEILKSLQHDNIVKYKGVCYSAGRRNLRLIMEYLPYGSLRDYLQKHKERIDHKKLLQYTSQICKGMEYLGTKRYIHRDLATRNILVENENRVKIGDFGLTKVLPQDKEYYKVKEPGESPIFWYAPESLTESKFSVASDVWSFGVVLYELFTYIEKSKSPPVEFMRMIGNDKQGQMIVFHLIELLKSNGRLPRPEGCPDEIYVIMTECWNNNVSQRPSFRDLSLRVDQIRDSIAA

Broadly, the EC50 is the concentration at which the effect is half-maximal. Higher therefore signals weaker potency. For orientation: inhibition means the percentage by which the read-out fell short of the control. In general, IC50 refers to the concentration that gives 50% inhibition. With `CCS(=O)(=O)N1CC(CC#N)(n2cc(-c3nc(Nc4ccc5c(c4)OCCN(C)CCO5)nc4[nH]ccc34)cn2)C1` [Example 28], in series [1], the concentration for a half-maximal effect (EC50) fell in the range of 50 to 500 nM. Besides, in series [2], the inhibition at 0.01 µM was more than 80% and the inhibition at 0.1 µM was more than 80%. The 50% inhibitory concentration (IC50) in series [3] was less than 50 nM.

On to `C=CC(=O)Nc1cccc(Nc2nc(Nc3ccc4c(c3)OCCN(C)CCOCCO4)ncc2Cl)c1` [Example 56, N-(3-((5-chloro-2-((7-methyl-2,3,6,7,8,9-hexahydro-5H-benzo[b][1,4,7]trioxa[10]azacyclododecan-12-yl)amino)pyrimidin-4-yl)amino)phenyl)acrylamide], for which the inhibition at 0.01 µM in series [4] is more than 80%. The IC50 in series [5] is less than 50 nM.

In turn, `CN1CCOc2ccc(Nc3nc(-c4cnn(C(CC#N)C5CCCC5)c4)c4cc[nH]c4n3)cc2OCC1` (centres unmarked) [Example 27] showed an EC50 in series [1] of 50 to 500 nM. For the same compound, the inhibition at 0.01 µM lay within 40 to 79% in series [2] and 40 to 79% in series [3] (at 10 nM, read-out: inhibition rate JAK3). Further, the inhibition at 0.1 µM is more than 80% in series [2] and more than 80% in series [3] (at 100 nM, read-out: inhibition rate JAK3). For the same compound, the half-maximal inhibitory concentration (IC50) in series [3] was less than 50 nM.

As usually defined, the solubility is how much of the substance goes into solution per volume. Consider `C=CC(=O)Nc1cccc(Nc2nc(Nc3ccc4c(c3)OCCOCCN(C)CCO4)ncc2Cl)c1` [Example 54, N-(3-((5-chloro-2-((7-methyl-2,3,6,7,8,9-hexahydro-5H-benzo[b][1,4,7]trioxa[10]azacyclododecan-13-yl)amino)pyrimidin-4-yl)amino)phenyl)acrylamide], for which the half-maximal effective concentration (EC50) in series [6] was 50 to 500 nM. The solubility at 1 h in series [7] (simulated gastric fluid, diluted hydrochloric acid solution A (pH-1.5), room temperature, 1 hour) was more than 3730 µg/mL. The concentration in solution in series [7] (ultrapure water (pH-6), room temperature overnight) (solubility) was 886 µg/mL (≈ 1690 µM). Moreover, the inhibition at 0.01 µM in series [4] is more than 80%. Besides, the 50% inhibitory concentration (IC50) in series [5] was less than 50 nM.

The values above are taken from patent EP4592286A1, “MACROCYCLIC NITROGEN-CONTAINING CROWN ETHER COMPOUND AND USE THEREOF AS PROTEIN KINASE INHIBITOR” (Artivila Biopharma, priority 2022, dated 2024).
